Patent US20230135152A1 (ACURASTEM INCORPORATED, priority 2020, published 2023)

Columns and labels:
PIKFYVE [1] = target: T1, PIKFYVE (Homo sapiens, UniProt Q9Y2I7); assay: PIKFYVE assay (luciferase ADP-Glo kinase assay, Promega); type: biochemical
In short: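 ADP generated in the kinase reaction was detected by ADP-Glo luminescence (luciferase).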

PIKFYVE [2] = target: T1, PIKFYVE; assay: Cell-based Pikfyve inhibition activity assay (EEA1 staining, mean vesicle size in BJ fibroblast cells); details: Table 4, 4 hours treatment, 3 μM Apilimod = 100% inhibition
In short: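 BJ fibroblasts treated 4 h at 37° C with eleven 3-fold doses (0.03-3000 nM), then fixed and stained for EEA1. Confocal images (20×, 16 tiles/well) analysed for mean vesicle size. Normalised to 0.5% DMSO (0%) and 3 μM apilimod (100%); dose-response fitted with variable slope.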

T1 sequence (Q9Y2I7 whole entry): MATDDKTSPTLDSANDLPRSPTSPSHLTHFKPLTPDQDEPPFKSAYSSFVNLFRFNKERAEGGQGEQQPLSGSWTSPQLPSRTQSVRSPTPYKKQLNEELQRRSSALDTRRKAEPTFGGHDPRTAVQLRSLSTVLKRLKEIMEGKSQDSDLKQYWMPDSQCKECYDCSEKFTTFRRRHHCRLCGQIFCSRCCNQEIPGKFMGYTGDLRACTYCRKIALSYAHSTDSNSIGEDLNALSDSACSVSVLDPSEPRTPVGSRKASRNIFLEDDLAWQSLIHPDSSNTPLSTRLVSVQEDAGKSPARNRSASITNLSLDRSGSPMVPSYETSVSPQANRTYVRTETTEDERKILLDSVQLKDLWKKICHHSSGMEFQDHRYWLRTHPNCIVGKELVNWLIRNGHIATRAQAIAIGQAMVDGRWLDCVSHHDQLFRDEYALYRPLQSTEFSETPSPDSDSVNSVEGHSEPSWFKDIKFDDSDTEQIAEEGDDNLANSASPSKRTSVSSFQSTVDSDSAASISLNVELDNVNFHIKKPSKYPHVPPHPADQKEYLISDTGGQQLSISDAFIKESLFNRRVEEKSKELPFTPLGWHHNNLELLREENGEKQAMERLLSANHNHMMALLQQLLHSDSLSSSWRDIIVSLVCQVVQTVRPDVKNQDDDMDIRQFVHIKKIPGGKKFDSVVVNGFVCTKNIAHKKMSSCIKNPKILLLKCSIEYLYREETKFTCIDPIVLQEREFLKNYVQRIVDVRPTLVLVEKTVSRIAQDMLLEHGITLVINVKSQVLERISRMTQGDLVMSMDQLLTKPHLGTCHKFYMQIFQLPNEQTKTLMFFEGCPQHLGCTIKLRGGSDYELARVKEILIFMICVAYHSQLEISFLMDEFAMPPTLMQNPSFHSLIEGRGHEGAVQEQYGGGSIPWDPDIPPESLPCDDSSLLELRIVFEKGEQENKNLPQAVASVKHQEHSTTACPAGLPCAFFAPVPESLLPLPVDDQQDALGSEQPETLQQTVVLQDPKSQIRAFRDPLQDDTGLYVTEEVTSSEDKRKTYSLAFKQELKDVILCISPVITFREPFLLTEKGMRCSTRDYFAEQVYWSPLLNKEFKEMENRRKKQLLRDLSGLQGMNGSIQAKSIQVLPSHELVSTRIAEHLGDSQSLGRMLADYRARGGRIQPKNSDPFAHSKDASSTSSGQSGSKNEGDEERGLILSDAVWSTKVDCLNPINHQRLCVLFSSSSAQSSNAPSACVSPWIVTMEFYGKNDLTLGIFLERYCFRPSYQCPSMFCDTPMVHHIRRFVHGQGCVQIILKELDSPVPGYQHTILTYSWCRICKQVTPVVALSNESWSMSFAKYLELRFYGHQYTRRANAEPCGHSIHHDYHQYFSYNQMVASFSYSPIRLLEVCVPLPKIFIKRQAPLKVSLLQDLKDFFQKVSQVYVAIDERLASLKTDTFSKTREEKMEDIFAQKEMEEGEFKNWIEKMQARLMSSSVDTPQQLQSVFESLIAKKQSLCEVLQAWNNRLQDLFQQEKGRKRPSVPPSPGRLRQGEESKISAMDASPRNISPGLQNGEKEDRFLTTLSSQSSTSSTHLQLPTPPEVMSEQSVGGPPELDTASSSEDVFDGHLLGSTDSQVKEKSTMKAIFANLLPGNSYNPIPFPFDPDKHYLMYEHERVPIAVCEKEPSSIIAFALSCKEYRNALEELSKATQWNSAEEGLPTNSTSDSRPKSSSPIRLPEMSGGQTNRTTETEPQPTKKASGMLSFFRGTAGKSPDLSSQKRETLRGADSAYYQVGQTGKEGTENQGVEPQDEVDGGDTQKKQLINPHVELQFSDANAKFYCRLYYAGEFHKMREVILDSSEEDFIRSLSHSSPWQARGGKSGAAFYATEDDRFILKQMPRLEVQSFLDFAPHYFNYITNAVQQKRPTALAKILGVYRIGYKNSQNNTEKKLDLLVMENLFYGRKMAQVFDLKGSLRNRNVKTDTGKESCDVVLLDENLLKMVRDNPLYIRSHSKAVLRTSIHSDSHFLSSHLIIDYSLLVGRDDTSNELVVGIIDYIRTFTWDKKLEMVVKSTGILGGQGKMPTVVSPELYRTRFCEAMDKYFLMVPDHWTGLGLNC

| SMILES | IC50 (PIKFYVE [1]; Table 3) [nM] | EC50 (PIKFYVE [2]) [nM] | IC50 (PIKFYVE [1]; Table 2) [nM] |
| --- | --- | --- | --- |
| COC(CO)(c1ccccc1)c1nc(N2CCOCC2)cc(-n2ccc(-c3cccc(C)c3)n2)n1 (stereo not drawn) [Compound 228, 2-methoxy-2-(4-morpholino-6-(3-(m-tolyl)-1H-pyrazol-1-yl)pyrimidin-2-yl)-2-phenylethan-1-ol] | < 3 | 100 to 500 | – |
| Cn1cc(CCOc2nc(N3CCOCC3)cc(-n3ccc(-c4cccnc4)n3)n2)cn1 [Compound 71, 4-(2-(2-(1-methyl-1H-pyrazol-4-yl)ethoxy)-6-(3-(pyridin-3-yl)-1H-pyrazol-1-yl)pyrimidin-4-yl)morpholine] | – | 500 to 5000 | < 5 |
| Cc1cccc(-c2ccn(-c3cc(N4CCOCC4)nc(OCCc4cnn(CCN(C)C)c4)n3)n2)c1 [Compound 74, N,N-dimethyl-2-(4-(2-((4-morpholino-6-(3-(m-tolyl)-1H-pyrazol-1-yl)pyrimidin-2-yl)oxy)ethyl)-1H-pyrazol-1-yl)ethan-1-amine] | – | 20 to 100 | < 5 |
| Cc1cccc(-c2ccn(-c3cc(N4CCOCC4)ncn3)n2)c1 [Compound 60, 4-(6-(3-(m-tolyl)-1H-pyrazol-1-yl)pyrimidin-4-yl)morpholine] | – | 500 to 5000 | 101 to 1000 |
| CN(C)CCc1cc(-c2ccccc2)nn1-c1cc(N2CCOCC2)nc(OCCc2cnn(C)c2)n1 [Compound 220, N,N-dimethyl-2-(1-(2-(2-(1-methyl-1H-pyrazol-4-yl)ethoxy)-6-morpholinopyrimidin-4-yl)-3-phenyl-1H-pyrazol-5-yl)ethan-1-amine] | < 3 | < 20 | – |
| Cc1cccc(-c2ccn(-c3cc(N4CCOCC4)nc(OCC4(C)COC4)n3)n2)c1 [Compound 176, 4-(2-((3-methyloxetan-3-yl)methoxy)-6-(3-(m-tolyl)-1H-pyrazol-1-yl)pyrimidin-4-yl)morpholine] | < 3 | 100 to 500 | – |
| CNc1nc(N2CCOCC2)cc(-n2nc(-c3ccccc3)cc2C)n1 [Compound 85] | – | 500 to 5000 | 101 to 1000 |
| Cc1cccc(-c2ccn(-c3cc(N4CCOCC4)nc(OC[C@H](O)c4ccccc4)n3)n2)c1 (single isomer, unassigned) [Compound 58] | – | 20 to 100 | < 5 |
| Cc1cccc(-c2ccn(-c3cc(N4CCOCC4)nc(CCC(O)c4cnn(C)c4)n3)n2)c1 (stereo not drawn) [Compound 231, 1-(1-methyl-1H-pyrazol-4-yl)-3-(4-morpholino-6-(3-(m-tolyl)-1H-pyrazol-1-yl)pyrimidin-2-yl)propan-1-ol] | < 3 | 20 to 100 | – |
| Cc1cccc(-c2ccn(-c3cc(N4CCOCC4)n4nc(C)cc4n3)n2)c1 [Compound 336, 4-(2-methyl-5-(3-(m-tolyl)-1H-pyrazol-1-yl)pyrazolo[1,5-a]pyrimidin-7-yl)morpholine] | 10 to 100 | 500 to 5000 | – |
| Cc1cccc(-c2ccn(-c3cc(N4CCOCC4)nc(OCC(=O)c4ccccc4)n3)n2)c1 [Compound 169] | 10 to 100 | 100 to 500 | – |
| Cc1cccc(-c2ccn(-c3cc(N4CCOCC4)nc(COCc4cn[nH]c4)n3)n2)c1 [Compound 300, 4-(2-(((1H-pyrazol-4-yl)methoxy)methyl)-6-(3-(m-tolyl)-1H-pyrazol-1-yl)pyrimidin-4-yl)morpholine] | < 3 | 20 to 100 | – |
| Cc1cccc(-c2ccn(-c3cc(N4CCOCC4)nc(OCCc4cnn(C)c4)n3)n2)c1 [Compound 56, 4-(2-(2-(1-methyl-1H-pyrazol-4-yl)ethoxy)-6-(3-(m-tolyl)-1H-pyrazol-1-yl)pyrimidin-4-yl)morpholine] | – | < 20 | < 5 |
| Cc1cccc(-c2ccn(-c3cc(N4CCOCC4)nc(OCCCC#N)n3)n2)c1 [Compound 175, 4-((4-morpholino-6-(3-(m-tolyl)-1H-pyrazol-1-yl)pyrimidin-2-yl)oxy)butanenitrile] | < 3 | 20 to 100 | – |
| OC(c1ccccc1)c1nc(N2CCOCC2)cc(-n2ccc(-c3ccccc3)n2)n1 (stereo not drawn) [Compound 183, (4-morpholino-6-(3-phenyl-1H-pyrazol-1-yl)pyrimidin-2-yl)(phenyl)methanol] | 10 to 100 | 100 to 500 | – |
